In patent US10656158B2, “Identification of enzyme activity through determination of its localization” (International Business Machines Corporation, priority 2014, dated 2020):

Target: T1, MurA enzyme (Bacillus subtilis, UniProt P70965)
T1 construct: expressed in transfected cells
Test: MurA-CFP enzyme localization (condensation) by fluorescence imaging in B. subtilis cells
Format: cell-based
Details: for state of MurA-CFP enzyme in the cell (localized or diffuse): exposure during exponential growth, 5 mM fosfomycin or 0.5 μg ml^−1 vancomycin, fluorescence imaging, 30° C.
Protocol: Enzymatic activity of the MurA enzyme in Bacillus subtilis was measured in the presence of enzyme condensation modulating agents. MurA enzyme is involved in an enzymatic biosynthetic pathway that catalyzes a biosynthetic precursor of peptidoglycan, a polymer of the cell wall. The agents that were assessed for effects on MurA were antibiotics fosfomycin and vancomycin.
The B. subtilis cells were cultivated to express a MurA-CFP conjugate protein (MurA-cyan fluorescent protein) under its natural promoter. After one hour in exponential growth, 1 ml of cell culture was centrifuged. The supernatant was collected and added to 2 ml of melted […] agarose solution in LB. The resulting 1.2% solution of molten agar/culture supernatant was supplemented with 0.5 μg ml^−1 FM 4-64 dye (N-(3-triethylammoniumpropyl)-4-(6-(4-(diethylamino) phenyl) hexatrienyl) pyridinium dibromide). Then 5 mM fosfomycin or 0.5 μg ml^−1 vancomycin was added to the well of a culture slide (wells 18 mm diameter×1.75 mm depth) and covered with a glass slide.
After cooling, the cover glass was removed and two air pockets were cut out of the agarose with a 15 ml tube, leaving a 3-5 mm agar bridge in the center of the well. Seven microliters of the remaining culture was spread over the agar, partially dried and sealed with cover glass. After cooling, the slide was removed and two air pockets were cut out of the agar leaving a 3-5 mm agar bridge in the center of the well. Cells were suspended in LB with FM4-64 dye (0.5 μg ml^−1) and were added at the agar bridge and covered by a glass coverslip. To prevent drying during the experiment, 50% glycerol was applied to the region of contact between the slide and the coverslip.
The slide was equilibrated in an environmentally controlled chamber at 30° C. (Precision Control Weather Station) for at least 10 min prior to visualization. […] After 2 hours of imaging, MurA-CFP expressing cells stopped growing, but the condensation of the enzyme could be detected by a bright fluorescent spot.

T1 sequence (P70965 whole entry): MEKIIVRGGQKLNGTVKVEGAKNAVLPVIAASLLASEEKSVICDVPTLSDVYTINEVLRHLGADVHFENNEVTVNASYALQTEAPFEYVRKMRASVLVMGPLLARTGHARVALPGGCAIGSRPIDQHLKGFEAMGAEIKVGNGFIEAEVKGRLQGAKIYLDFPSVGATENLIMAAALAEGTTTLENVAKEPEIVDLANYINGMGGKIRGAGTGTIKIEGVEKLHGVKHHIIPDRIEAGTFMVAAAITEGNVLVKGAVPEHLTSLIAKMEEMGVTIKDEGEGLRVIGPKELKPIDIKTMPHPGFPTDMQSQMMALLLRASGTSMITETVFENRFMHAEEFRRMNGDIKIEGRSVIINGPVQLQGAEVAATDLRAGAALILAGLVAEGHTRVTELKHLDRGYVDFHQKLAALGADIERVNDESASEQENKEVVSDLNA

SMILES	areas of localized MurA-CFP (added to the cells during stationary growth before MurA began to localize (not shown))	state of MurA-CFP enzyme in the cell (localized or diffuse)
C[C@@H]1O[C@@H]1P(=O)(O)O [Fosfomycin, fosfomycin]	not observed	localized
CN[C@H](CC(C)C)C(=O)N[C@H]1C(=O)N[C@@H](CC(N)=O)C(=O)N[C@H]2C(=O)N[C@H]3C(=O)N[C@H](C(=O)N[C@H](C(=O)O)c4cc(O)cc(O)c4-c4cc3ccc4O)[C@H](O)c3ccc(c(Cl)c3)Oc3cc2cc(c3O[C@@H]2O[C@H](CO)[C@@H](O)[C@H](O)[C@H]2O[C@H]2C[C@](C)(N)[C@H](O)[C@H](C)O2)Oc2ccc(cc2Cl)[C@H]1O [Vancomycin, vancomycin]		diffuse
